Experimental data published in PubChem BioAssay AID720520 (The Scripps Research Institute Molecular Screening Center, 2013).

Experiments:
Assay in all cases: selectivity of inhibitors across other TLRs – RAW264.7 cells, luminescence, powder samples, selectivity assay for TLR9 inhibitor project, late-stage follow-up (AID 720520); call rule not given here
TLR7/8 = details: RAW264.7 TLR2/4/7-8 NFkB-luciferase reporter, 6 h, with R848 1 µg/mL
TLR4 = details: RAW264.7 TLR2/4/7-8 NFkB-luciferase reporter, 6 h, with LPS 0.1 µg/mL
TLR2 = details: RAW264.7 TLR2/4/7-8 NFkB-luciferase reporter, 6 h, with MALP-2 50 ng/mL

Measured: IC50

COc1ccc(C[C@@H]2OC3(C=CC(=O)C=C3)O[C@H]2Cc2ccc(OC)cc2)cc1
active: TLR7/8 80 nM | TLR4 72 nM | TLR2 58 nM

O=S(=O)(/C=C/C=C/S(=O)(=O)c1ccccc1)c1ccccc1
active: TLR7/8 93 nM | TLR4 126 nM | TLR2 126 nM

O=C1C=CC2(C=C1)O[C@H](Cc1ccccc1)[C@@H](Cc1ccccc1)O2
active: TLR7/8 245 nM | TLR4 226 nM | TLR2 226 nM
